# Experimental data reported in US12264156B2, “Compounds and pharmaceutical compositions thereof for the treatment of diseases” (GALAPAGOS NV, priority 2018, dated 2025).
# What was measured:
# Format in all cases: biochemical
# Conditions in all cases: ADP-Glo SIK kinase assay
# SIK1 = molecular target: T1, SIK1 (Homo sapiens, UniProt P57059); experiment: ADP-Glo kinase assay, SIK1
# T1 construct: purchased Carna Biosciences 02-131
# Outline: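 ADP-Glo, RT throughout. Enz/substrate + ATP, 120 min; ADP-Glo reagent 40 min (ATP depletion); detection reagent 30 min; luminescence read. Neg ctrl 1% DMSO, pos ctrl 10 μM staurosporine, final concs.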
# SIK3 = molecular target: T2, SIK3 (Homo sapiens, UniProt Q9Y2K2); experiment: ADP-Glo kinase assay, SIK3
# T2 construct: purchased SignalChem S12-11G-100
# T2 sequence (Q9Y2K2 whole entry): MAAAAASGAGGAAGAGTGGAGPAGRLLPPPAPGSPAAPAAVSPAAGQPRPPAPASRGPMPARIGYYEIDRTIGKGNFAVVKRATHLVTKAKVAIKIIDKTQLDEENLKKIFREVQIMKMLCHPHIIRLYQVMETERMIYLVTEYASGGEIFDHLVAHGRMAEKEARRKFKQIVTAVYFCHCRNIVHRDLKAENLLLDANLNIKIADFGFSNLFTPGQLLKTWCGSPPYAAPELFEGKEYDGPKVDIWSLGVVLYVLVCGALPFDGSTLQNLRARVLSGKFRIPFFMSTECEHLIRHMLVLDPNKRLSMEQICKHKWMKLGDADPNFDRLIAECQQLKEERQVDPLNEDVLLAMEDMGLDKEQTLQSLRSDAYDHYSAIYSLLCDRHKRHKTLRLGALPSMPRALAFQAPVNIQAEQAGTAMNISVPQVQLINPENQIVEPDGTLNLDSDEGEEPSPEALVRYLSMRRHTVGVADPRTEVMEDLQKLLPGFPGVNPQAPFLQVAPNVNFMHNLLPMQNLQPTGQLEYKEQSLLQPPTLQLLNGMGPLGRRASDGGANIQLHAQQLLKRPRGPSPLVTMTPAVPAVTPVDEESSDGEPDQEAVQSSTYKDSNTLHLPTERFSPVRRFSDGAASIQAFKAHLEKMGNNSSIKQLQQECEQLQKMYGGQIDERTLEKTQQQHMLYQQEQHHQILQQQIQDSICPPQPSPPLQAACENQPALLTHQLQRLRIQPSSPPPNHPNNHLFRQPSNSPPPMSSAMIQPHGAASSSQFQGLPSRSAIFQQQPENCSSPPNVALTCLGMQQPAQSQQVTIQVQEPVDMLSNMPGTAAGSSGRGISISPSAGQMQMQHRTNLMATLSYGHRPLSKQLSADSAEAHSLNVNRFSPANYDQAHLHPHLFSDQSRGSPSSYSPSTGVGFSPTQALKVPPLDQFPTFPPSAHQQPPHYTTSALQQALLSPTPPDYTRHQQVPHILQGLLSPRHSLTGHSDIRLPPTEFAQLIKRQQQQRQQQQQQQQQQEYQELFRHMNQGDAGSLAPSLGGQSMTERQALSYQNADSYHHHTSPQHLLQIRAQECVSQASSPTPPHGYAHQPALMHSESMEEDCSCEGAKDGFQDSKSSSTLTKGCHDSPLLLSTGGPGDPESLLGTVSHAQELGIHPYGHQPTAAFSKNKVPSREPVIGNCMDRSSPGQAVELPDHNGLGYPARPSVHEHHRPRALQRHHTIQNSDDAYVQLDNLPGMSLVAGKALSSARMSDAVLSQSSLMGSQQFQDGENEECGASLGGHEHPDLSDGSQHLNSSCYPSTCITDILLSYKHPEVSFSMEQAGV
# Outline: (§1)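 ADP-Glo luminescent assay of ADP formed by SIK2 or SIK3 with substrate after ATP addition, 120 min at RT. Remaining ATP depleted 40 min, then ADP converted to ATP and read by luciferase luminescence after 30 min. Controls: 1% DMSO and 10 μM staurosporine (final).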
# SIK2 = molecular target: T3, SIK2 (Homo sapiens, UniProt Q9H0K1); experiment: ADP-Glo kinase assay, SIK2
# T3 construct: purchased ThermoFisher Scientific PV4792
# T3 sequence (Q9H0K1 whole entry): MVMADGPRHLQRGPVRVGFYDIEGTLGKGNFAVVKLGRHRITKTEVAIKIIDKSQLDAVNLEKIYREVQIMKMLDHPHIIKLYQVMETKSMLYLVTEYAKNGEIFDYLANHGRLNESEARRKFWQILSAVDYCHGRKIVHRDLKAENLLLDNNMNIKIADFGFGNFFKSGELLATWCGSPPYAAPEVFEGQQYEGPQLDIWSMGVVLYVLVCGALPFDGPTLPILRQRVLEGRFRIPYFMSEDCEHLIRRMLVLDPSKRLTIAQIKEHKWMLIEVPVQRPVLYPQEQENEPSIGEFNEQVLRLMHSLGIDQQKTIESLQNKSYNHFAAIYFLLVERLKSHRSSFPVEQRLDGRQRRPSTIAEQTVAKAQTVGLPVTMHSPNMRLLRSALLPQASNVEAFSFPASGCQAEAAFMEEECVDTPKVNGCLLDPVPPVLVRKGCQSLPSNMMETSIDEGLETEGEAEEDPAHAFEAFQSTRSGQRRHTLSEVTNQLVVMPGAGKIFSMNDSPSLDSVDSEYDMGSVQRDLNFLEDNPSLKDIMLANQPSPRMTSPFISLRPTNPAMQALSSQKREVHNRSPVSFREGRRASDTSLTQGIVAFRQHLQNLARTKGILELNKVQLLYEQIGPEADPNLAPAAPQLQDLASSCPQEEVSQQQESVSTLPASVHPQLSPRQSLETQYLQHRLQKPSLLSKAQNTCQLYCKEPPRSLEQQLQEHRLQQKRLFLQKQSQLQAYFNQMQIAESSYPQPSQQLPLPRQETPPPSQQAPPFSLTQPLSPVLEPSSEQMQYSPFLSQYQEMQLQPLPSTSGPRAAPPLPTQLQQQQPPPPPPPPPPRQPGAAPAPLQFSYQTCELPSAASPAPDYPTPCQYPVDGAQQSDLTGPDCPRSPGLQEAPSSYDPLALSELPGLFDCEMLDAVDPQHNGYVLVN
# Outline: as §1
# T1 sequence (P57059 whole entry): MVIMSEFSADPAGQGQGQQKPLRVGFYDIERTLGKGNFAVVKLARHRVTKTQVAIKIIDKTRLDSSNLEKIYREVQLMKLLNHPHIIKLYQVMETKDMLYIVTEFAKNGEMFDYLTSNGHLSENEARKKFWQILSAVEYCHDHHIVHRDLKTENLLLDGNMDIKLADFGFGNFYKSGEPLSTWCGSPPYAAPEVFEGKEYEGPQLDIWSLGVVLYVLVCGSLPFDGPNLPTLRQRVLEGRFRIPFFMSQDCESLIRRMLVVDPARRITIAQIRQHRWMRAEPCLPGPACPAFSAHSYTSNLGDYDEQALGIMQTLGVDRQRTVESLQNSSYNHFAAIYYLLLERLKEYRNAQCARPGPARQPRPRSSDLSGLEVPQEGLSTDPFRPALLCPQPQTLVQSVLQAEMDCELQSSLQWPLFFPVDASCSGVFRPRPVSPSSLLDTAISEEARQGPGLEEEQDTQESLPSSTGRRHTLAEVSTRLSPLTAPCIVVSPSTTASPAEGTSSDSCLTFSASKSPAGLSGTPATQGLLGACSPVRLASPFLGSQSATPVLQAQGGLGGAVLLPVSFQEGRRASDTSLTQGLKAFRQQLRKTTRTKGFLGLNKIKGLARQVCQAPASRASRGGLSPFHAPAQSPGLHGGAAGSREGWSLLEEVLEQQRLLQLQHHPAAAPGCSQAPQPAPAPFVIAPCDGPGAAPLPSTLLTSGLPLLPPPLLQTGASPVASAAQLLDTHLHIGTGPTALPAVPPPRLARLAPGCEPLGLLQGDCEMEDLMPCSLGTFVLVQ
SMILES,IC50 (SIK1) [nM],IC50 (SIK3) [nM],IC50 (SIK2) [nM]
"COc1cc(-c2cnc3cc(OC4CC5(COC5)C4)ccn23)cc(OC(F)F)c1C(=O)NC1CC1 [compound 162, N-cyclopropyl-2-(difluoromethoxy)-6-methoxy-4-[7-(2-oxaspiro[3.3]heptan-6-yloxy)imidazo[1,2-a]pyridin-3-yl]benzamide]",10 to 100,0.01 to 10,10 to 100
"COc1cc(-c2cnc3cc(OC4CC(C#N)C4)ccn23)cc(OC(F)F)c1C(=O)NC1CC1 (stereo not drawn) [compound 164, 4-[7-(3-cyanocyclobutoxy)imidazo [1,2-a]pyridin-3-yl]-N-cyclopropyl-2-(difluoromethoxy)-6-methoxy-benzamide]",10 to 100,0.01 to 10,0.01 to 10
"COc1cc(-c2cnc3cc(OCC4(N)CC4)ccn23)cc(OC(F)F)c1C(=O)NC1CC1 [compound 171, 4-[7-[(1-aminocyclopropyl)methoxy]imidazo[1,2-a]pyridin-3-yl]-N-cyclopropyl-2-(difluoromethoxy)-6-methoxy-benzamide]",10 to 100,0.01 to 10,0.01 to 10
"COc1cc(-c2cnc3cc(OCc4nccn4C(C)C)ccn23)cc(OC(F)F)c1C(=O)NC1CC1 [compound 175, N-cyclopropyl-2-(difluoromethoxy)-4-[7-[(1-isopropylimidazol-2-yl)methoxy]imidazo[1,2-a]pyridin-3-yl]-6-methoxy-benzamide]",100 to 500,0.01 to 10,0.01 to 10
"COc1cc(-c2cnc3cc(OCCN4CCOCC4C#N)ccn23)cc(OC(F)F)c1C(=O)NC1CC1 (stereo not drawn) [compound 178, 4-[7-[2-(3-cyanomorpholin-4-yl)ethoxy]imidazo[1,2-a]pyridin-3-yl]-N-cyclopropyl-2-(difluoromethoxy)-6-methoxy-benzamide]",10 to 100,0.01 to 10,0.01 to 10
"COc1cc(-c2cnc3cc(OCCN4CC(F)(F)C4)ccn23)cc(OC(F)F)c1C(=O)NC1CC1 [compound 186, N-cyclopropyl-4-[7-[2-(3,3-difluoroazetidin-1-yl)ethoxy]imidazo[1,2-a]pyridin-3-yl]-2-(difluoromethoxy)-6-methoxy-benzamide]",10 to 100,0.01 to 10,0.01 to 10
"COc1cc(-c2cnc3cc(OCCN4CCOCC4(C)C)ccn23)cc(OC(F)F)c1C(=O)NC1CC1 [compound 192, N-cyclopropyl-2-(difluoromethoxy)-4-[7-[2-(3,3-dimethylmorpholin-4-yl)ethoxy]imidazo[1,2-a]pyridin-3-yl]-6-methoxy-benzamide]",10 to 100,0.01 to 10,0.01 to 10
"COc1cc(-c2cnc3cc(OCCN4CCOC(C)(C)C4)ccn23)cc(OC(F)F)c1C(=O)NC1CC1 [compound 194, N-cyclopropyl-2-(difluoromethoxy)-4-[7-[2-(2,2-dimethylmorpholin-4-yl)ethoxy]imidazo[1,2-a]pyridin-3-yl]-6-methoxy-benzamide]",10 to 100,0.01 to 10,0.01 to 10
"COc1cc(-c2cnc3cc(OCCN4CC5CCC(C4)O5)ccn23)cc(OC(F)F)c1C(=O)NC1CC1 [compound 195, N-cyclopropyl-2-(difluoromethoxy)-6-methoxy-4-[7-[2-(8-oxa-3-azabicyclo [3.2.1]octan-3-yl)ethoxy]imidazo[1,2-a]pyridin-3-yl]benzamide]",10 to 100,0.01 to 10,0.01 to 10
"COc1cc(-c2cnc3cc(OCc4cc(C)nn4C)ccn23)cc(OC(F)F)c1C(=O)NC1CC1 [compound 198, N-cyclopropyl-2-(difluoromethoxy)-4-[7-[(2,5-dimethylpyrazol-3-yl)methoxy]imidazo[1,2-a]pyridin-3-yl]-6-methoxy-benzamide]",10 to 100,0.01 to 10,0.01 to 10
"COc1cc(-c2cnc3cc(OCc4cnn(C)c4)ccn23)cc(OC(F)F)c1C(=O)NC1CC1 [compound 199, N-cyclopropyl-2-(difluoromethoxy)-6-methoxy-4-[7-[(1-methylpyrazol-4-yl)methoxy]imidazo[1,2-a]pyridin-3-yl]benzamide]",10 to 100,0.01 to 10,0.01 to 10
"COc1cc(-c2cnc3cc(OCC4COCCN4C)ccn23)cc(OC(F)F)c1C(=O)NC1CC1 (stereo not drawn) [compound 201, N-cyclopropyl-2-(difluoromethoxy)-6-methoxy-4-[7-[(4-methylmorpholin-3-yl)methoxy]imidazo[1,2-a]pyridin-3-yl]benzamide]",10 to 100,0.01 to 10,10 to 100
"COc1cc(-c2cnc3cc(OCC(C)N(C)C)ccn23)cc(OC(F)F)c1C(=O)NC1CC1 (stereo not drawn) [compound 202, N-cyclopropyl-2-(difluoromethoxy)-4-[7-[2-(dimethylamino)propoxy]imidazo[1,2-a]pyridin-3-yl]-6-methoxy-benzamide]",100 to 500,0.01 to 10,0.01 to 10
CCC(COc1ccn2c(-c3cc(OC)c(C(=O)NC4CC4)c(OC(F)F)c3)cnc2c1)N(C)C (stereo not drawn) [compound 203],100 to 500,0.01 to 10,10 to 100
"COc1cc(-c2cnc3cc(OCc4nnc(C5CC5)o4)ccn23)cc(OC(F)F)c1C(=O)NC1CC1 [compound 205, N-cyclopropyl-4-[7-[(5-cyclopropyl-1,3,4-oxadiazol-2-yl)methoxy]imidazo[1,2-a]pyridin-3-yl]-2-(difluoromethoxy)-6-methoxy-benzamide]",0.01 to 10,0.01 to 10,0.01 to 10

# Second part, the molecule after the results:
IC50 (SIK1) [nM],IC50 (SIK3) [nM],IC50 (SIK2) [nM],SMILES
10 to 100,0.01 to 10,10 to 100,"COc1cc(-c2cnc3cc(OC4CCOC4)ccn23)cc(OC(F)F)c1C(=O)NC1CC1 (stereo not drawn) [compound 163, N-cyclopropyl-2-(difluoromethoxy)-6-methoxy-4-(7-tetrahydrofuran-3-yloxyimidazo[1,2-a]pyridin-3-yl)benzamide]"
100 to 500,0.01 to 10,10 to 100,"COc1cc(-c2cnc3cc(OCC4(N)CCCCC4)ccn23)cc(OC(F)F)c1C(=O)NC1CC1 [compound 169, 4-[7-[(1-aminocyclohexyl)methoxy]imidazo[1,2-a]pyridin-3-yl]-N-cyclopropyl-2-(difluoromethoxy)-6-methoxy-benzamide]"
10 to 100,0.01 to 10,0.01 to 10,"COc1cc(-c2cnc3cc(OCC4(N)COC4)ccn23)cc(OC(F)F)c1C(=O)NC1CC1 [compound 170, 4-[7-[(3-aminooxetan-3-yl)methoxy]imidazo[1,2-a]pyridin-3-yl]-N-cyclopropyl-2-(difluoromethoxy)-6-methoxy-benzamide]"
100 to 500,0.01 to 10,0.01 to 10,"COc1cc(-c2cnc3cc(OCC4(N)CCC4)ccn23)cc(OC(F)F)c1C(=O)NC1CC1 [compound 174, 4-[7-[(1-aminocyclobutyl)methoxy]imidazo[1,2-a]pyridin-3-yl]-N-cyclopropyl-2-(difluoromethoxy)-6-methoxy-benzamide]"
10 to 100,0.01 to 10,0.01 to 10,"COc1cc(-c2cnc3cc(OCC4(N)CCOC4)ccn23)cc(OC(F)F)c1C(=O)NC1CC1 (stereo not drawn) [compound 176, 4-[7-[(3-aminotetrahydrofuran-3-yl)methoxy]imidazo[1,2-a]pyridin-3-yl]-N-cyclopropyl-2-(difluoromethoxy)-6-methoxy-benzamide]"
10 to 100,0.01 to 10,0.01 to 10,"COc1cc(-c2cnc3cc(OCCN4CCOC(C(F)(F)F)C4)ccn23)cc(OC(F)F)c1C(=O)NC1CC1 (stereo not drawn) [compound 179, N-cyclopropyl-2-(difluoromethoxy)-6-methoxy-4-[7-[2-[2-(trifluoromethyl)morpholin-4-yl]ethoxy]imidazo[1,2-a]pyridin-3-yl]benzamide]"
10 to 100,0.01 to 10,0.01 to 10,"COc1cc(-c2cnc3cc(OCCN4CCC(F)(F)C4)ccn23)cc(OC(F)F)c1C(=O)NC1CC1 [compound 180, N-cyclopropyl-2-(difluoromethoxy)-4-[7-[2-(3,3-difluoropyrrolidin-1-yl)ethoxy]imidazo[1,2-a]pyridin-3-yl]-6-methoxy-benzamide]"
100 to 500,0.01 to 10,0.01 to 10,"CNCCOc1ccn2c(-c3cc4c(c(OC)c3)C(=O)N(CC(F)(F)F)CC4)cnc2c1 [compound 185, 8-methoxy-6-[7-[2-(methylamino)ethoxy]imidazo[1,2-a]pyridin-3-yl]-2-(2,2,2-trifluoroethyl)-3,4-dihydroisoquinolin-1-one]"
10 to 100,0.01 to 10,0.01 to 10,"COc1cc(-c2cnc3cc(OCCN4CCOC(C5CC5)C4)ccn23)cc(OC(F)F)c1C(=O)NC1CC1 (stereo not drawn) [compound 196, N-cyclopropyl-4-[7-[2-(2-cyclopropylmorpholin-4-yl)ethoxy]imidazo[1,2-a]pyridin-3-yl]-2-(difluoromethoxy)-6-methoxy-benzamide]"
10 to 100,0.01 to 10,0.01 to 10,"COc1cc(-c2cnc3cc(OCc4ccn(C)n4)ccn23)cc(OC(F)F)c1C(=O)NC1CC1 [compound 200, N-cyclopropyl-2-(difluoromethoxy)-6-methoxy-4-[7-[(1-methylpyrazol-3-yl)methoxy]imidazo[1,2-a]pyridin-3-yl]benzamide]"
0.01 to 10,0.01 to 10,0.01 to 10,"COc1cc(-c2cnc3cc(OCCc4cnn(C)c4)ccn23)cc(OC(F)F)c1C(=O)NC1CC1 [compound 204, N-cyclopropyl-2-(difluoromethoxy)-6-methoxy-4-[7-[2-(1-methylpyrazol-4-yl)ethoxy]imidazo[1,2-a]pyridin-3-yl]benzamide]"
